Source: patent publication US20260327211A1, “MODULATORS OF A POTASSIUM CHANNEL AND OF TRPV1 CHANNEL AND USES THEREOF” (Bsense Bio Therapeutics Ltd., priority 2023, published 2026)
Blank lines part the entries; values can stand above or below the molecule they belong to.

What was measured:
[1] = DRG distribution in rat; type: in vivo; details: 8-hour post-dose
[2] = target: T1, adrenergic α2A (Homo sapiens, UniProt P08913); assay: Functional selectivity panel, adrenergic α2A; type: biochemical
T1 construct: Eurofins DiscoverX, USA
Experimental: (§1) A broad panel of 78 recombinant targets was tested for pharmacologic activity in vitro through a variety of functional assays (Eurofins DiscoverX, USA), as part of the National Institute of Neurological Disorders and Stroke (NINDS) Preclinical Screening Platform for Pain (PSPP) program. The biological targets for the in vitro profiling have been selected based on avoiding opioid receptor stimulation and targets known to be associated with adverse events or targeted by drugs of abuse. […] For each test, a reference compound was evaluated at the target of interest as a positive control.

[3] = target: T2, dopamine D2 (Homo sapiens, UniProt P14416); assay: Functional selectivity panel, dopamine D2; type: biochemical
T2 construct: Eurofins DiscoverX, USA
Experimental: as §1

[4] = target: T3, hKv7.2/3 (Homo sapiens, UniProt O43525+O43526); assay: Kv7.2/7.3 whole-cell electrophysiology in CHO cells; type: cell-based; details: 100 nM, −40 mV, N=4, read-out: Kv7.2/3 current activation
T3 construct: host or cells: CHO
Excerpt: Extracellular (Bath) solution: The solution was composed of (in mM): NaCl, 140; KCl, 4; CaCl2, 1.8; MgCl2, 1.2; Glucose, 11; HEPES, 5.5. pH was adjusted to 7.3 with NaOH. Osmolarity was adjusted to 310 mOsm with Sucrose.
Intracellular (Pipette) solution: Pipettes were pulled from borosilicate glass (Warner Instrument Corp, USA) with a resistance of 3-7 MΩ and were filled with internal solution composed of (in mM): KCl, 130; MgCl2, 1; K ATP, 5; EGTA, 5 (replaced by BAPTA in rat DRG neurons recordings); HEPES, 10. pH was adjusted to 7.3 with KOH. Osmolarity was adjusted to 290 mOsm with Sucrose.
A programmable valve-linked pressurized perfusion system (AutoMate Scientific) was used for local application of compounds nearby the cell recorded in a consistent flow rate of 2-3 ml/min. Series resistance was corrected and data were sampled at 5 kHz and low pass filtered at 2.4 kHz using MultiClamp 700B amplifier with pCLAMP11 software (Molecular Devices, USA). […]
The current obtained at −40 mV membrane potential when test compound is injected is divided by the averaged current at −40 mV, recorded before test-compound application and following its washout, to evaluate the drug/control response.

[5] = target: T4, Nav1.5 (Homo sapiens, UniProt Q14524); assay: Functional selectivity panel, Nav1.5; type: biochemical; details: up to 10 micromolar
T4 construct: Eurofins DiscoverX functional panel cells
Experimental: as §1

[6] = test system: NMDA; assay: Functional selectivity panel, NMDA; type: biochemical; details: up to 10 micromolar
Experimental: as §1

[7] = target: T5, nAChR(a4/b2) (Homo sapiens, UniProt P17787+P43681); assay: Functional selectivity panel, nAChR(a4/b2); type: biochemical; details: up to 10 micromolar
T5 construct: Eurofins DiscoverX functional panel cells
Experimental: as §1

[8] = test system: GABAA; assay: Functional selectivity panel, GABAA; type: biochemical; details: up to 10 micromolar
Experimental: as §1

[9] = test system: COX-1/2; assay: Functional selectivity panel, COX-1/2; type: biochemical; details: up to 10 micromolar
Experimental: as §1

[10] = target: P-gp (Homo sapiens, UniProt P08183); assay: Transporter substrate, P-gp; type: in vitro ADME; details: role: substrate
Experimental: (§2) Additionally, compound 760 was tested for its capability to act as a transporter substrate for various transporters, and was not found to be a transporter substrate for any of the tested transporters.

[11] = target: OATP2B1 (Homo sapiens, UniProt O94956); assay: Transporter substrate, OATP2B1; type: in vitro ADME; details: role: substrate
Experimental: as §2

[12] = target: OAT1 (Homo sapiens, UniProt Q4U2R8); assay: Transporter substrate, OAT1; type: in vitro ADME; details: role: substrate
Experimental: as §2

[13] = test system: MATE1; assay: Transporter substrate, MATE1; type: in vitro ADME; details: role: substrate
Experimental: as §2

[14] = test system: human sensory neurons; assay: Human NPC-derived sensory neurons, spontaneous activity; type: cell-based; details: 5 μM
Experimental: Cell culture and differentiation: Human PSC-derived neural progenitor cells (Stem Cell Catalog No. 70901 and 70902) were cultured and expanded on Matrigel coated 6-wells plates, using neuronal progenitor medium containing: Neurobasal media supplemented by non-essential amino-acids, 1%; Glutamax, 1%; B27, 2%, FGF2, 20 ng/mL). hNPC were then plated onto PDL and Matrigel coated 12 mm coverglass at a density of about 50,000 cells/well of a 6 well, in DMEM/F12; 10% KSR; 1% P/S and A83-01 (2 μM) from days 0-5. From days 0-9 the medium contained also CHIR99021 (6 μM). From Day 3-9 the medium included RO4929097 (2 μM) and SU5402 (3 μM). […]
Electrophysiology: To characterize the neuronal properties with electrophysiology recordings, round small neurons (20-40 μm in diameter) were selected from day 31 and onwards. Cells were monitored for their polarized negative membrane potential and for their ability to evoke consistent spikes train responses to repeated positive current injections as a mark of achieving electrical maturation before testing the effect of the tested compounds on neuronal excitability. Membrane excitability was monitored using current clamp. […]
The inhibitory potency of the newly designed compounds as described herein was evaluated based on their ability to reduce the spontaneous neuronal activity.

Chain of OATP2B1 (O94956 whole entry): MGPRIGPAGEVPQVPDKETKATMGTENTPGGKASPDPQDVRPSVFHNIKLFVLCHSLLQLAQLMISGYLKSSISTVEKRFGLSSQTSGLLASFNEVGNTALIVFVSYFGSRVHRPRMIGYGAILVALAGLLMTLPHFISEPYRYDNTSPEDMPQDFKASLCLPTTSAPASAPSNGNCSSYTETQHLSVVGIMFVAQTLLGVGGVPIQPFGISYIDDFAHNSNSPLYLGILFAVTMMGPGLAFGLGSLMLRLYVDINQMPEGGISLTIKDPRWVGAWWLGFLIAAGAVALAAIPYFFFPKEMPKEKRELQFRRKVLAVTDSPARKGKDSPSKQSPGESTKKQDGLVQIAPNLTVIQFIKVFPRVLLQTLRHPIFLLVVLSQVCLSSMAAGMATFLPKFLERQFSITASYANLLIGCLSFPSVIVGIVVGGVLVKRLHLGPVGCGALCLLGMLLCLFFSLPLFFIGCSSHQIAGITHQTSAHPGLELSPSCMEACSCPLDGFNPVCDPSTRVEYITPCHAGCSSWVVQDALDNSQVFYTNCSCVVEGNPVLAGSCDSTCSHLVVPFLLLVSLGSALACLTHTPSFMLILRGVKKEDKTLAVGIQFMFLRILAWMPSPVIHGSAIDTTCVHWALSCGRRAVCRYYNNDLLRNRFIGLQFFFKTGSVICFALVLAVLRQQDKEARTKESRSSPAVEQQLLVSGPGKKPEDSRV
T4 sequence (Q14524 whole entry): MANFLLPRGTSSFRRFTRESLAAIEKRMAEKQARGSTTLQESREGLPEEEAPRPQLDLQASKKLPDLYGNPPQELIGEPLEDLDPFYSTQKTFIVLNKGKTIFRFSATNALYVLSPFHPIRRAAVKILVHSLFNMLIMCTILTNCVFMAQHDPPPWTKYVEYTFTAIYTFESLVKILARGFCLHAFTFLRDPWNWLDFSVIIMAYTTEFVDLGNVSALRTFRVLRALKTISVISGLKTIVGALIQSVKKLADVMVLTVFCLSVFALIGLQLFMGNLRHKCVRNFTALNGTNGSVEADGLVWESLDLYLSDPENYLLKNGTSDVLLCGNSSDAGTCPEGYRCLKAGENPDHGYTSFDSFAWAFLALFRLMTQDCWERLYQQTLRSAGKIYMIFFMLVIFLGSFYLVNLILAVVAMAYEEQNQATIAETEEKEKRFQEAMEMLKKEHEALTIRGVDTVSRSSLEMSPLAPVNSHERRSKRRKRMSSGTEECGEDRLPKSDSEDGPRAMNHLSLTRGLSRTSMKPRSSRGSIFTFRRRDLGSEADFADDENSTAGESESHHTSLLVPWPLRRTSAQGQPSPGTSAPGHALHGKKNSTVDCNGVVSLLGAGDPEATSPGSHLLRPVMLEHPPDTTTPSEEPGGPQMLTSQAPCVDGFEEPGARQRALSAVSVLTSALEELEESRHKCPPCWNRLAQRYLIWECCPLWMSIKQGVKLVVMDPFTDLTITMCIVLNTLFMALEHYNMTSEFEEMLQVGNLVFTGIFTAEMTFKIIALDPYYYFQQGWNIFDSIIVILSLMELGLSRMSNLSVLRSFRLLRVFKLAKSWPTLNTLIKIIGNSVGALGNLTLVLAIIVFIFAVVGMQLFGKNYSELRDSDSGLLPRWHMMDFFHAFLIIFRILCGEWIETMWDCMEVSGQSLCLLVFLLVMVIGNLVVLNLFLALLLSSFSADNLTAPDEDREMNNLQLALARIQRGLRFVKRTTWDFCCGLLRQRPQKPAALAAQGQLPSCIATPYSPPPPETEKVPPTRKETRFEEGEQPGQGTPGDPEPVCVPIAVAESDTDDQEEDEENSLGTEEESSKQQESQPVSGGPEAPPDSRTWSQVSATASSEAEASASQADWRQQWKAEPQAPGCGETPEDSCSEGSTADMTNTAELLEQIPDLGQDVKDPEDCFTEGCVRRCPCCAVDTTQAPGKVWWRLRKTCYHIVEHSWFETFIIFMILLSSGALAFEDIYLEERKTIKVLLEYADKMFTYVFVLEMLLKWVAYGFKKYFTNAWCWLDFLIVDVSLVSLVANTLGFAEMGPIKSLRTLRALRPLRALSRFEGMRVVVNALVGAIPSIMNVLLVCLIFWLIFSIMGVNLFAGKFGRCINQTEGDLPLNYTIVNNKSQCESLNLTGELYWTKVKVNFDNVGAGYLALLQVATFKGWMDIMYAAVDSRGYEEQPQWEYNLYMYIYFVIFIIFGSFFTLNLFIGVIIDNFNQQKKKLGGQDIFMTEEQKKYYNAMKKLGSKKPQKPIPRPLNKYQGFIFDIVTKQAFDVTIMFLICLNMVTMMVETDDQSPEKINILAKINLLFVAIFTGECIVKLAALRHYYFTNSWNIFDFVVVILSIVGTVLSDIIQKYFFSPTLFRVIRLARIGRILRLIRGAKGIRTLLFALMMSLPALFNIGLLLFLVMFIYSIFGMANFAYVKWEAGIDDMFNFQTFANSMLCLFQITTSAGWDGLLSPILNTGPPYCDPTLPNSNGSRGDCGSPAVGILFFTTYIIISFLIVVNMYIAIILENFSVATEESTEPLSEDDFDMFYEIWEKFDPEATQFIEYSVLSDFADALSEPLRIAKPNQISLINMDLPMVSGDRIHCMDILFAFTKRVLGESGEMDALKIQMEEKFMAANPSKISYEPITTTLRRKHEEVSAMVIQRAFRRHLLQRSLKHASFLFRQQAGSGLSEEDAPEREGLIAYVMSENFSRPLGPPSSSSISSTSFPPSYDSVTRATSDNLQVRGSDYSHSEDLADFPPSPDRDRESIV
Chain of OAT1 (Q4U2R8 whole entry): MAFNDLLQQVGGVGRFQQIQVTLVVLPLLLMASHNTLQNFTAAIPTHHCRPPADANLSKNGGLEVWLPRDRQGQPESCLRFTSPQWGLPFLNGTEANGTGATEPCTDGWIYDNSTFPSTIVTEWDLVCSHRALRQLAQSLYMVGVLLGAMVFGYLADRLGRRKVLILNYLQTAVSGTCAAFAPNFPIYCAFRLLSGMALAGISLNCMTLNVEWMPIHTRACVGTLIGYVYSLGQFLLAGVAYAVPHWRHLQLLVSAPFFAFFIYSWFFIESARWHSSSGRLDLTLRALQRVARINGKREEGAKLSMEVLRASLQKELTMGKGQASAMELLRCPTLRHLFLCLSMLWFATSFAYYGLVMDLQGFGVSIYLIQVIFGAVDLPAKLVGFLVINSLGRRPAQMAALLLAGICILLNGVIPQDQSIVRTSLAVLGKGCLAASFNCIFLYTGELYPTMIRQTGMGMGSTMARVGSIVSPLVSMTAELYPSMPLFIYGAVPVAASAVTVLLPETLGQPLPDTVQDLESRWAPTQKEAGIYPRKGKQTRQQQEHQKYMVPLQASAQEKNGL
T2 sequence (P14416 whole entry): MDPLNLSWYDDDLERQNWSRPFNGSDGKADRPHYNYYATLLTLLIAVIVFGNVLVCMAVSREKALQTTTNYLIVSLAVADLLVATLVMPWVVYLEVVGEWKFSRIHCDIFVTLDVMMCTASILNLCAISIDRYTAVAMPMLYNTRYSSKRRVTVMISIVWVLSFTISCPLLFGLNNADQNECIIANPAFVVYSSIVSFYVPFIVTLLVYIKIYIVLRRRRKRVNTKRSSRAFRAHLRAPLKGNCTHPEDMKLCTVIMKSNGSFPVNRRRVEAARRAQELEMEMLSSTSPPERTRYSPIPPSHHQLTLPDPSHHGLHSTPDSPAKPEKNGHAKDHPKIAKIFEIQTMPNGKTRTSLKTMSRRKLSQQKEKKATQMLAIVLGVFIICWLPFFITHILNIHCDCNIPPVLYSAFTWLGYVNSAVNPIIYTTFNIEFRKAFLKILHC
T1 sequence (P08913 whole entry): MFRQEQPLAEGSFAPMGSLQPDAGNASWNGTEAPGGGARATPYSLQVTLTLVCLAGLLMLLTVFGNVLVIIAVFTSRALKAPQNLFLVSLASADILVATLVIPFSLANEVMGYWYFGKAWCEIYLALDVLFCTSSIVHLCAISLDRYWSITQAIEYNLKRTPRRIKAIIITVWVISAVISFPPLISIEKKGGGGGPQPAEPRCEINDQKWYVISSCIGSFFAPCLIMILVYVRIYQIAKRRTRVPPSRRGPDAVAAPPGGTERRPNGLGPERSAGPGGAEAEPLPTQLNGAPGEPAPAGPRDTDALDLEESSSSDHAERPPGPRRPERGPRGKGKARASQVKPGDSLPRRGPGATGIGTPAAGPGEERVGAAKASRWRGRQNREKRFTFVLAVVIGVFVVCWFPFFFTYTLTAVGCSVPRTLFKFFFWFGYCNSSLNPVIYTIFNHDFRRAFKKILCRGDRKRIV

Free exposure in DRG [1]: 0.012 nM
IC50 [2]: 6 µM
IC50 [3]: 10 µM
SMILES: O=C(Cc1cncc(-n2cc(Cl)c3cc(Cl)cc(Cl)c32)c1)N[C@@H]1COC[C@H]1O [Compound 661]

activation at 0.1 µM [4]: 24.4 ± 10.4%
SMILES: O=C(Cc1cc(-n2cc(Cl)c3cc(Cl)cc(Cl)c32)ccc1F)NCCO [Compound 627]

SMILES: O=C(Cc1nccc(-n2cc(Cl)c3cc(Cl)cc(Cl)c32)n1)NC1COCC1O (centres unmarked) [Compound 760]
Effect on Nav1.5 [5]: no effect
Effect on NMDA [6]: no effect
Effect on nAChR(a4/b2) [7]: no effect
Effect on GABAA [8]: no effect
Effect on COX-1/2 [9]: no effect
P-gp substrate [10]: not a transporter substrate or a poor substrate
OATP2B1 substrate [11]: not a transporter substrate
OAT1 substrate [12]: not a transporter substrate
MATE1 substrate [13]: not a transporter substrate

SMILES: COC[C@@H](CO)NC(=O)Cc1cc(Sc2c(Cl)cc(F)cc2C(C)C)ccc1F [Compound 415]
Spontaneous activity of human sensory neurons [14]: significantly reduced
